Results published in patent US11298363B2, “Triazolobenzazepines as vasopressin V1a receptor antagonists” (RICHTER GEDEON NYRT., priority 2017, dated 2022).
Counter-ions that a name gives are not always drawn.

What was measured:
[1] = molecular target: T1, human vasopressin V1a receptor (Homo sapiens, UniProt P37288); assay: Functional assay on human vasopressin V1a receptor expressing cell line (intracellular Ca2+ fluorescence); format: cell-based; details: 1321N1 cells, (Arg8)-vasopressin at EC80; read-out: IC50 (nM) on hV1a cell line
Method: Functional Assay to Test Compounds on Human Vasopressin V1a Receptor Expressing Cell Line
The ordinary secondary messenger pathway of the measured GPCR receptor was used, the endogenous Gq-associated system.
Using 30,000 cells/plate, compounds were measured on 96-well plates. The buffer composition of the measurements was the following (expressed in mM): 140 NaCl, 5 KCl, 2 CaCl2), 2 MgCl2, 10 glucose, 10 HEPES (4-(2-hydroxyethyl)-1-piperazine-ethanesulfonic acid), 2 probenecid, pH=7.4. FLIPR Calcium 5 kit (Molecular Devices) was used as fluorescent dye, the medium was not removed prior to filling with the dye and the cells were not washed out either before or after. The incubation was performed at room temperature, the final concentration of DMSO was 1%. The materials to be measured were administered in 15 to 20 minutes pretreatment, at least two parallels of each compound in each concentration was measured.
Fluorescence signal was used to determine the intracellular Ca^2+ level, the reader was FlexStation II96. […] The fluorescence signal was logged in every 1.4 seconds for 1 minute. The reference compounds used were the following: (Arg^8)-vasopressin as agonist at concentration of EC80, determined for each plate, and relcovaptan as antagonist at 1 μM. The % of inhibition at each concentration and the IC50 value of the compounds were determined where a concentration line was also measured.
The total AVP concentration-response curve was recorded on each plate. The effect of compounds measured was expressed by percentage of relative inhibition compared to control response. […] The average IC50 values were calculated from at least three independent measurements in all cases.

[2] = molecular target: T1, human vasopressin V1a receptor; assay: Human vasopressin V1a receptor binding assay; details: 1321N1 cell membranes, [3H]vasopressin; read-out: Ki (nM) on hV1a cell line
Method: Human Vasopressin V1a Receptor Binding Assay
Cells were suspended in preparative buffer (50 mM Tris, 1 mM EDTA, 0.1 mM PMSF) and homogenized with glass homogenizing potter. To separate the raw membrane fraction two consecutive centrifugation procedures (40,000 g for 20 minutes at 4° C.) were executed, then the membrane was taken into the preparatory buffer during a final washing step, it was divided into aliquots which were stored at −80° C. until the time of measurement.
To determine the final affinity value, the results of at least two independent experiments were taken into account.
Non-specific binding values were determined in the presence of unlabeled 1.2×10^−6 M (Arg^8)-vasopressin. Samples were incubated in a total volume of 0.33 ml for 60 minutes at 27° C. Membrane-bound and free ligands were separated by filtration through a 0.5% polyethyleneimine-impregnated UniFilter® GF/B™. After drying the filter plates, 40 μl Microscint-20 (Packard) scintillation cocktail was added to the samples. Finally, radioactivity was measured using MicroBeta^2 Microplate Counter (Perkin Elmer).
During fitting, the asymptotes are not fixed. The K values (inhibition constant) are given with Cheng-Prusoff equation Ki=IC50/[1+(L/KD)] wherein [L] is the radioligand concentration used in the experiment and [KD] is the affinity of the radioactively labelled ligand for the given receptor. The KD is determined beforehand using the Scatchard curve.

T1 sequence (P37288 whole entry): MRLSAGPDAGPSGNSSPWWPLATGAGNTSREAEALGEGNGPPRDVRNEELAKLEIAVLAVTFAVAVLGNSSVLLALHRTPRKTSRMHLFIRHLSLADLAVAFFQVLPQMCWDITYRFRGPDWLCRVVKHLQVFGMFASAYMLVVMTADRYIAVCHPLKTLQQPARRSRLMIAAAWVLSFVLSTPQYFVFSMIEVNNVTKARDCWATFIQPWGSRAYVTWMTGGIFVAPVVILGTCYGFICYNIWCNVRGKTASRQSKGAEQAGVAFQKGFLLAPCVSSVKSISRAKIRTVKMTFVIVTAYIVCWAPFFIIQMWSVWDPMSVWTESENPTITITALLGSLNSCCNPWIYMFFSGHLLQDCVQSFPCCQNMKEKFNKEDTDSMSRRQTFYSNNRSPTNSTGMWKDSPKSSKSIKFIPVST

Row | IC50 [1] [nM] | Ki [2] [nM] | Structure (SMILES)
1 | 480 | 111 | CC(C)(C)OC(=O)NC1Cc2cc(C(F)(F)F)ccc2-n2c(nnc2[C@H]2CC[C@H](Oc3ccccn3)CC2)C1 (stereo partly drawn) [Example 33, Tert-butyl {1-[trans-4-(pyridin-2-yloxy)cyclohexyl]-8-(trifluoromethyl)-5,6-dihydro-4H-[1,2,4]triazolo[4,3-a][1]benzazepin-5-yl}carbamate]
2 | 700 | 52 | NC1Cc2cc(C(F)(F)F)ccc2-n2c(nnc2[C@H]2CC[C@H](Oc3ccccn3)CC2)C1 (stereo partly drawn) [Example 34, 1-[trans-4-(pyridin-2-yloxy)cyclohexyl]-8-(trifluoromethyl)-5,6-dihydro-4H-[1,2,4]triazolo[4,3-a][1]benzazepine-5-amine hydrochloride]
3 | 160 | 9.7 | CN(C)C1Cc2cc(C(F)(F)F)ccc2-n2c(nnc2[C@H]2CC[C@H](Oc3ccccn3)CC2)C1 (stereo partly drawn) [Example 35, N,N-dimethyl-1-[trans-4-(pyridin-2-yloxy)cyclohexyl]-8-(trifluoromethyl)-5,6-dihydro-4H-[1,2,4]triazolo[4,3-a][1]benzazepine-5-amine]
4 | 610 | 36 | CC(C)NC1Cc2cc(C(F)(F)F)ccc2-n2c(nnc2[C@H]2CC[C@H](Oc3ccccn3)CC2)C1 (stereo partly drawn) [Example 36, N-(propan-2-yl)-1-[trans-4-(pyridin-2-yloxy)cyclohexyl]-8-(trifluoromethyl)-5,6-dihydro-4H-[1,2,4]triazolo[4,3-a][1]benzazepine-5-amine]
5 | 100 | 7 | Cc1ccc2c(c1)CC(N)Cc1nnc([C@H]3CC[C@H](Oc4ccccn4)CC3)n1-2 (stereo partly drawn) [Example 37, 8-methyl-1-[trans-4-(pyridin-2-yloxy)cyclohexyl]-5,6-dihydro-4H-[1,2,4]triazolo[4,3-a][1]benzazepine-5-amine]
6 | 30 | 2 | Cc1ccc2c(c1)CC(NC(C)C)Cc1nnc([C@H]3CC[C@H](Oc4ccccn4)CC3)n1-2 (stereo partly drawn) [Example 38, 8-methyl-N-(propan-2yl)-1-[trans-4-(pyridin-2-yloxy)cyclohexyl]-5,6-dihydro-4H-[1,2,4]triazolo[4,3-a][1]benzazepine-5-amine]
7 | 8.3 | 1.4 | NC1Cc2cc(Br)ccc2-n2c(nnc2[C@H]2CC[C@H](Oc3ccccn3)CC2)C1 (stereo partly drawn) [Example 39, 8-bromo-1-[trans-4-(pyridin-2-yloxy)cyclohexyl]-5,6-dihydro-4H-[1,2,4]triazolo[4,3-a][1]benzazepine-5-amine]
8 | 8.4 | 0.9 | CC(C)NC1Cc2cc(Br)ccc2-n2c(nnc2[C@H]2CC[C@H](Oc3ccccn3)CC2)C1 (stereo partly drawn) [Example 40, 8-bromo-N-(propan-2-yl)-1-[trans-4-(pyridin-2-yloxy)cyclohexyl]-5,6-dihydro-4H-[1,2,4]triazolo[4,3-a][1]benzazepine-5-amine]
9 | 210 | 88 | NC1Cc2cc(Cl)ccc2-n2c(nnc2[C@H]2CC[C@H](C(F)(F)F)CC2)C1 (some centres unmarked) [Example 43]
10 | 480 | 26 | CC(C)NC1Cc2cc(Cl)ccc2-n2c(nnc2[C@H]2CC[C@H](C(F)(F)F)CC2)C1 (stereo partly drawn) [Example 44, 8-chloro-N-(propan-2-yl)-1-[trans-4-(trifluoromethyl)cyclohexyl]-5,6-dihydro-4H-[1,2,4]triazolo[4,3-a][1]benzazepine-5-amine]
11 | 870 | 38 | NC1Cc2cc(Br)ccc2-n2c(nnc2[C@H]2CC[C@H](C(F)(F)F)CC2)C1 (stereo partly drawn) [Example 45, 8-bromo-1-[trans-4-(trifluoromethyl)cyclohexyl]-5,6-dihydro-4H-[1,2,4]triazolo[4,3-a][1]benzazepine-5-amine]
12 | 410 | 23 | CC(C)NC1Cc2cc(Br)ccc2-n2c(nnc2[C@H]2CC[C@H](C(F)(F)F)CC2)C1 (stereo partly drawn) [Example 46, 8-bromo-N-(propan-2-yl)-1-[trans-4-(trifluoromethyl)cyclohexyl]-5,6-dihydro-4H-[1,2,4]triazolo[4,3-a][1]benzazepine-5-amine]
13 | 340 | 18 | O=C1Cc2cc(C(F)(F)F)ccc2-n2c(nnc2[C@H]2CC[C@H](Oc3ccccn3)CC2)C1 [Example 48, 1-[trans-4-(pyridin-2-yloxy)cyclohexyl]-8-(trifluoromethyl)-4H-[1,2,4]triazolo[4,3-a][1]benzazepin-5(6H)-one]
14 | 140 | 7.5 | OC1Cc2cc(C(F)(F)F)ccc2-n2c(nnc2[C@H]2CC[C@H](Oc3ccccn3)CC2)C1 (stereo partly drawn) [Example 49, 1-[trans-4-(pyridin-2-yloxy)cyclohexyl]-8-(trifluoromethyl)-5,6-dihydro-4H-[1,2,4]triazolo[4,3-a][1]benzazepin-5-ol]
15 | 20 | 2.7 | COC1Cc2cc(C(F)(F)F)ccc2-n2c(nnc2[C@H]2CC[C@H](Oc3ccccn3)CC2)C1 (stereo partly drawn) [Example 50, 5-methoxy-1-[trans-4-(pyridin-2-yloxy)cyclohexyl]-8-(trifluoromethyl)-5,6-dihydro-4H-[1,2,4]triazolo[4,3-a][1]benzazepine]
16 | 55 | 7.6 | FC(F)(F)c1ccc2c(c1)CC(OCC1CC1)Cc1nnc([C@H]3CC[C@H](Oc4ccccn4)CC3)n1-2 (stereo partly drawn) [Example 51, 5-(cyclopropylmethoxy)-1-[trans-4-(pyridin-2-yloxy)cyclohexyl]-8-(trifluoromethyl)-5,6-dihydro-4H-[1,2,4]triazolo[4,3-a][1]benzazepine]
17 | 2.5 | 0.8 | Clc1ccc2c(c1)CC(OCC1CC1)Cc1nnc([C@H]3CC[C@H](Oc4ccccn4)CC3)n1-2 (stereo partly drawn) [Example 59, 5-(Cyclopropylmethoxy)-8-chloro-1-[trans-4-(pyridin-2-yloxy)cyclohexyl]-5,6-dihydro-4H-[1,2,4]triazolo[4,3-a][1]benzazepine]
18 | 1.1 | 0.5 | O=C1Cc2cc(Br)ccc2-n2c(nnc2[C@H]2CC[C@H](Oc3ccccn3)CC2)C1 [Example 64]
19 | 1 | 0.5 | OC1Cc2cc(Br)ccc2-n2c(nnc2[C@H]2CC[C@H](Oc3ccccn3)CC2)C1 (stereo partly drawn) [Example 65, 8-bromo-1-[trans-4-(pyridin-2-yloxy)cyclohexyl]-5,6-dihydro-4H-[1,2,4]triazolo[4,3-a][1]benzazepin-5-ol]
20 | 2.3 | 0.6 | CN(C)[C@H]1Cc2cc(Cl)ccc2-n2c(nnc2[C@H]2CC[C@H](Oc3ccccn3)CC2)C1 [Example 67]
21 | 33 | 9.4 | CC(=O)N[C@H]1Cc2cc(Cl)ccc2-n2c(nnc2[C@H]2CC[C@H](Oc3ccccn3)CC2)C1 [Example 68, (5S)—N-{8-chloro-1[trans-4-(pyridin-2-yloxy)cyclohexyl]-5,6-dihydro-4H-[1,2,4]triazolo[4,3-a][1]benzazepin-5-yl}acetamide]
22 | 139 | 10 | Clc1ccc2c(c1)CC1(Cc3nnc([C@H]4CC[C@H](CN5CCCCC5)CC4)n3-2)OCCO1 [Example 69, 8′-chloro-1′-[trans-4-(piperidin-1-ylmethyl)cyclohexyl]-4′H,6′H-spiro[1,3-dioxolane-2,5′-[1,2,4]triazolo[4,3-a][1]benzazepine]]
23 | 1.2 | 0.4 | O=C([C@H]1CC[C@H](c2nnc3n2-c2ccc(Cl)cc2CC2(C3)OCCO2)CC1)N1CCCC1 [Example 70, [Trans-4-(8′-chloro-4′H,6′H-spiro[1,3-dioxolane-2,5′-[1,2,4]triazolo[4,3-a][1]benzazepine]-1′-yl)cyclohexyl](pyrrolidin-1-yl)methanone]
24 | 22 | 14 | O=C1Cc2cc(Cl)ccc2-n2c(nnc2[C@H]2CC[C@H](C(F)(F)F)CC2)C1 [Example 71, 8-chloro-1-[trans-4-(trifluoromethyl)cyclohexyl]-4H-[1,2,4]triazolo[4,3-a][1]benzazepin-5(6H)-one]

Row | Structure (SMILES) | IC50 [1] [nM] | Ki [2] [nM]
25 | CC(C)(C)[Si](C)(C)OC1Cc2cc(Cl)ccc2-n2c(nnc2[C@H]2CC[C@H](Oc3ccccn3)CC2)C1 (stereo partly drawn) [Example 52, 5-{[tert-butyl(dimethyl)silyl]oxy}-8-chloro-1-[trans-4-(pyridin-2-yloxy)cyclohexyl]-5,6-dihydro-4H-[1,2,4]triazolo[4,3-a][1]benzazepine] | 60 | 11
